Like-named read-outs stand apart in the source and are kept apart here. Each block holds one molecule with its values, some of them ahead of it.
How the values were obtained:
[1] = stability at room temperature (remark with characterisation data); format: physicochemical
BJ vs. BJ-ELR = test: Assessment of Cancer/Normal Selective Toxicity (crystal violet); format: cell-based, human; conditions: crystal violet staining, 48 h
HeLa cells [2] = test: Glutathione Assay (GSH/GSSG-Glo), total cellular glutathione; format: cell-based, human; conditions: 6 h treatment
HeLa = test: ATP Assay (CellTiter-Glo), cellular ATP levels as surrogate for cell viability; format: cell-based, human
Protocol: (§1) ATP Assay. […] At that time, media was removed and replaced with a solution of CellTiter-Glo reagent (Promega) in PBS. After ten minutes, luminescence was read using an EnVision multilabel plate reader (Perkin-Elmer) and signal intensity was calculated relative to in-plate DMSO control wells.
(§2) We next sought to determine the performance of the synthetic analogs relative to PL in cells. […] As a second assay, effects of compound treatments on ATP levels, a surrogate for cell viability, were measured after 48 hours.
(§3) Assays were performed in 384-well plates on two human cancer cell lines, H1703 (lung) and HeLa (cervix).

H1703 = test: as above; format: cell-based, human
Protocol: as §1, §2, §3

[3] = tested on: EJ bladder carcinoma line; test: Glutathione Assay (GSH/GSSG-Glo), total cellular glutathione; conditions: EJ cells, 3 h treatment
HeLa cells [4] = test: Immunofluorescence Detection of Glutathionylated Proteins; conditions: for elevation of protein glutathionylation (in words): HeLa cells, monoclonal antibody recognizing glutathione
[5] = tested on: H1703 (lung) and HeLa (cervix); test: ROS Assay (CM-H2DCF-DA, automated microscopy); format: cell-based, human; conditions: 90 minutes after compound treatment
[6] = tested on: H1703 (lung) and HeLa (cervix); test: ATP assay / cellular toxicity, covering both cell lines; format: cell-based, human; conditions: two cell lines tested, ATP levels after 48 h
[7] = Homo sapiens, HeLa; Table 1; cellular ATP levels, 48 h; read-out: EC50 HeLa
[8] = Table 2; cellular ATP levels, 48 h; read-out: EC50 HeLa
[9] = Homo sapiens, NCI-H1703; Table 1; cellular ATP levels, 48 h; read-out: EC50 H1703
[10] = Table 2; cellular ATP levels, 48 h; read-out: EC50 H1703
[11] = Homo sapiens, HeLa; Table 2; cellular ATP levels, 48 h; read-out: EC50 HeLa
[12] = Homo sapiens, NCI-H1703; Table 2; cellular ATP levels, 48 h; read-out: EC50 H1703

stability at room temperature [1]: decomposes slowly at room temperature
SMILES: COc1cc(/C=C/C(=O)N2CCC=C(C#CCN(C)C)C2=O)cc(OC)c1OC [(E)-3-(3-(dimethylamino)prop-1-ynyl)-1-(3-(3,4,5-trimethoxyphenyl)prop-2-enoyl)-5,6-dihydropyridin-2(1H)-one]

EC50 (HeLa; [7]): 1.3 µM
EC50 (H1703; [9]): 0.7 µM
SMILES: COc1cc(/C=C/C(=O)N2CCC=C(C#CC3CC3)C2=O)cc(OC)c1OC [compound 5, (E)-3-(cyclopropylethynyl)-1-(3-(3,4,5-trimethoxyphenyl)prop-2-enoyl)-5,6-dihydropyridin-2(1H)-one]
elevation of protein glutathionylation (in words) (HeLa cells [4]): large and rapid elevations in protein glutathionylation

EC50 (HeLa; [8]): 4.1 µM
EC50 (H1703; [10]): 2.7 µM
SMILES: O=C1C=CCCN1S(=O)(=O)/C=C/c1ccccc1 [compound 52, 1-{[(E)-2-phenylvinyl]sulfonyl}-5,6-dihydropyridin-2(1H)-one]
selective toxicity toward transformed BJ-ELR over BJ fibroblasts (in words) (BJ vs. BJ-ELR): selectivity comparable to PL

The remaining lines, values behind:

SMILES: S=C=NCCc1ccccc1 [Phenethylisothiocyanate, reference compound]
selective toxicity toward transformed BJ-ELR over BJ fibroblasts (in words) (BJ vs. BJ-ELR): showed selectivity in this assay

SMILES: COc1cc(/C=C/C(=O)N2CCC=CC2=O)cc(OC)c1OC [compound 1, piperlongumine, reference compound]
decrease in total glutathione (in words) (HeLa cells [2]): most effective
EC50 (HeLa; Homo sapiens, HeLa, 48 h, read-out: EC50 HeLa): 7.1 µM
EC50 (H1703; Homo sapiens, NCI-H1703, 48 h, read-out: EC50 H1703): 2.8 µM
decrease in total cellular glutathione [3]: ca. 60%
elevation of protein glutathionylation (in words) (HeLa cells [4]): large and rapid elevations in protein glutathionylation
reversal of protein glutathionylation by 0.1 M dithiothreitol (HeLa cells [4]; treatment with 0.1 M dithiothreitol): could not be reversed

SMILES: COc1cc(/C=C/C(=O)N2CCCCC2=O)cc(OC)c1OC [compound 2, 1-[(2E)-3-(3,4,5-trimethoxyphenyl)prop-2-enoyl]piperidin-2-one]
elevation of ROS levels (in words) [5]: neither elevated ROS levels
EC50 (HeLa; [7]): > 20 µM
EC50 (HeLa; [8]): > 20 µM
EC50 (H1703; [9]): > 20 µM
EC50 (H1703; [10]): > 20 µM

SMILES: COC(=O)CSC1CCN(C(=O)/C=C/c2cc(OC)c(OC)c(OC)c2)C(=O)C1 (stereo not drawn) [compound 25]
elevation of ROS levels (in words) [5]: substantially less potent than PL
EC50 (HeLa; read-out: EC50 HeLa; Table 2; cellular ATP levels, 48 h): > 20 µM
EC50 (H1703; read-out: EC50 H1703; Table 2; cellular ATP levels, 48 h): 7.9 µM
viability / cellular toxicity (in words) [6]: substantially less potent than PL at inducing cancer cell death

SMILES: COc1cc2c(c(OC)c1OC)CCC(C(=O)N1CCC=CC1=O)=C2 [compound 29, 1-(5,6,7-trimethoxy-3,4-dihydronaphthalene-2-carbonyl)-5,6-dihydropyridin-2(1H)-one]
elevation of ROS levels (in words) [5]: robust enhancement of ROS levels
EC50 (HeLa; [8]): > 20 µM
EC50 (H1703; [10]): 14 µM
decrease in total cellular glutathione [3]: ca. 60%
elevation of protein glutathionylation (in words) (HeLa cells [4]): minimal elevation
viability / cellular toxicity (in words) [6]: diminished cell death relative to PL

SMILES: O=C1C=CCCN1C(=O)CCC(=O)N1CCC=CC1=O [compound 77]
EC50 (HeLa; [11]): 15 µM
EC50 (H1703; [12]): 5.5 µM

SMILES: O=C1C=CCCN1C(=O)/C=C/c1ccc(/C=C/C(=O)N2CCC=CC2=O)cc1 [compound 78]
EC50 (HeLa; [11]): 0.78 µM
EC50 (H1703; [12]): 0.3 µM
